Laboratory results taken from patent publication US6613747B2, “6-O-carbamoyl ketolide antibacterials” (Ortho-McNeil Pharmaceutical, Inc., priority 2000, dated 2003).
Converted amounts (≈) assume the structure as drawn.

Tests used:
Assay in all cases: MIC, microdilution broth method (NCCLS)
Format in all cases: cell-based
S. aureus ATCC29213 = settings: B: S. aureus ATCC29213, 35° C., 16-20 hours
Description: (§1) Minimal inhibitory concentration (MIC) has been an indicator of in vitro antibacterial activity widely used in the art. The in vitro antimicrobial activity of the compounds was determined by the microdilution broth method following the test method from the National Committee for Clinical Laboratory Standards (NCCLS). This method is described in the NCCLS Document M7-A4, Vol. 17, No. 2, “Methods for Dilution Antimicrobial Susceptibility Test for Bacteria that Grow Aerobically—Fourth Edition”, which is incorporated herein by reference.
(§2) In this method two-fold serial dilutions of drug in cation adjusted Mueller-Hinton broth are added to wells in microdilution trays. The test organisms are prepared by adjusting the turbidity of actively growing broth cultures so that the final concentration of test organism after it is added to the wells is approximately 5×10^4 CFU/well.
(§3) Following inoculation of the microdilution trays, the trays are incubated at 35° C. for 16-20 hours and then read. […] The amount of growth in the wells containing the test compound is compared with the amount of growth in the growth-control wells (no test compound) used in each tray. As set forth in Table 1, compounds of the present invention were tested against a variety of Gram positive and Gram negative pathogenic bacteria resulting in a range of activities depending on the organism tested.

S. pneumoniae ATCC49619 = settings: D: S. pneumoniae ATCC49619, 35° C., 16-20 hours
Description: as §1, §2, §3

E. coli OC2605 = settings: A: E. coli OC2605, 35° C., 16-20 hours
Description: as §1, §2, §3

E. faecalis ATCC29212 = settings: C: E. faecalis ATCC29212, 35° C., 16-20 hours
Description: as §1, §2, §3

H. influenzae ATCC49247 = settings: E: H. influenzae ATCC49247, 35° C., 16-20 hours
Description: as §1, §2, §3

Structure (SMILES) | MIC (S. aureus ATCC29213) | MIC (S. pneumoniae ATCC49619) | MIC (E. coli OC2605) | MIC (E. faecalis ATCC29212) | MIC (H. influenzae ATCC49247)
CC[C@H]1OC(=O)[C@H](C)C(=O)[C@H](C)[C@@H](O[C@@H]2O[C@H](C)C[C@H](N(C)C)[C@H]2O)[C@](C)(OC(=O)NC/C=C/c2ccc(-n3cncn3)c(F)c2)C[C@@H](C)C(=O)[C@H](C)[C@H]2NC(=O)O[C@@]21C [Compound 53] | 0.25 µg/mL (≈ 0.297 µM) | 0.03 µg/mL (≈ 0.0356 µM) | 16 µg/mL (≈ 19 µM) | 0.12 µg/mL (≈ 0.142 µM) | 4 µg/mL (≈ 4.75 µM)
CC[C@H]1OC(=O)[C@H](C)C(=O)[C@H](C)[C@@H](O[C@@H]2O[C@H](C)C[C@H](N(C)C)[C@H]2O)[C@](C)(OC(=O)NCCNCc2ccc(-c3ncccn3)cc2)C[C@@H](C)C(=O)[C@H](C)[C@H]2NC(=O)O[C@@]21C [Compound 115] | 2 µg/mL (≈ 2.34 µM) | 0.06 µg/mL (≈ 0.0703 µM) | >16 µg/mL | 0.5 µg/mL (≈ 0.586 µM) | 16 µg/mL (≈ 18.8 µM)
CC[C@H]1OC(=O)[C@H](C)C(=O)[C@H](C)[C@@H](O[C@@H]2O[C@H](C)C[C@H](N(C)C)[C@H]2O)[C@](C)(OC(=O)NC/C=C/c2ccccc2)C[C@@H](C)C(=O)[C@H](C)[C@H]2NC(=O)O[C@@]21C [Compound 4] | 0.25 µg/mL (≈ 0.33 µM) | 0.03 µg/mL (≈ 0.0396 µM) | >16 µg/mL | 0.12 µg/mL (≈ 0.158 µM) | 1 µg/mL (≈ 1.32 µM)
CCC1OC(=O)C(C)(F)C(=O)C(C)C(OC2OC(C)CC(N(C)C)C2O)C(C)(OC(=O)NCC=Cc2ccc(-n3cccn3)cc2)CC(C)C(=O)C(C)C2NC(=O)OC12C (centres unmarked) [Compound 91] | 0.25 µg/mL (≈ 0.297 µM) | 0.06 µg/mL (≈ 0.0713 µM) | 16 µg/mL (≈ 19 µM) | 0.12 µg/mL (≈ 0.143 µM) | 4 µg/mL (≈ 4.75 µM)
CC[C@H]1OC(=O)[C@H](C)C(=O)[C@H](C)[C@@H](O[C@@H]2O[C@H](C)C[C@H](N(C)C)[C@H]2O)[C@](C)(OC(=O)NC/C=C/c2ccncc2)C[C@@H](C)C(=O)[C@H](C)[C@H]2NC(=O)O[C@@]21C [Compound 30] | 0.5 µg/mL (≈ 0.659 µM) | 0.03 µg/mL (≈ 0.0395 µM) | 16 µg/mL (≈ 21.1 µM) | 0.12 µg/mL (≈ 0.158 µM) | 2 µg/mL (≈ 2.64 µM)
CC[C@H]1OC(=O)[C@H](C)C(=O)[C@H](C)[C@@H](O[C@@H]2O[C@H](C)C[C@H](N(C)C)[C@H]2O)[C@](C)(OC(=O)NCc2ccc(-n3cncn3)c(F)c2)C[C@@H](C)C(=O)[C@H](C)[C@H]2NC(=O)O[C@@]21C [Compound 55] | 0.5 µg/mL (≈ 0.612 µM) | 0.03 µg/mL (≈ 0.0367 µM) | 16 µg/mL (≈ 19.6 µM) | 0.12 µg/mL (≈ 0.147 µM) | 4 µg/mL (≈ 4.9 µM)
CCC1OC(=O)C(C)(F)C(=O)C(C)C(OC2OC(C)CC(N(C)C)C2O)C(C)(OC(=O)NCCOCc2ccc(-c3ncccn3)cc2)CC(C)C(=O)C(C)C2NC(=O)OC12C (centres unmarked) [Compound 108] | 0.5 µg/mL (≈ 0.573 µM) | 0.06 µg/mL (≈ 0.0688 µM) | >16 µg/mL | 0.25 µg/mL (≈ 0.287 µM) | 4 µg/mL (≈ 4.59 µM)
CC[C@H]1OC(=O)[C@H](C)C(=O)[C@H](C)[C@@H](O[C@@H]2O[C@H](C)C[C@H](N(C)C)[C@H]2O)[C@](C)(OC(=O)NCc2ccc(-c3cncnc3)cc2)C[C@@H](C)C(=O)[C@H](C)[C@H]2NC(=O)O[C@@]21C [Compound 28] | 0.25 µg/mL (≈ 0.309 µM) | 0.03 µg/mL (≈ 0.037 µM) | 16 µg/mL (≈ 19.8 µM) | 0.06 µg/mL (≈ 0.0741 µM) | 4 µg/mL (≈ 4.94 µM)
CC[C@H]1OC(=O)[C@H](C)C(=O)[C@H](C)[C@@H](O[C@@H]2O[C@H](C)C[C@H](N(C)C)[C@H]2O)[C@](C)(OC(=O)NCC#Cc2cnc3ccccc3c2)C[C@@H](C)C(=O)[C@H](C)[C@H]2NC(=O)O[C@@]21C [Compound 29] | 0.5 µg/mL (≈ 0.62 µM) | 0.03 µg/mL (≈ 0.0372 µM) | 16 µg/mL (≈ 19.8 µM) | 0.06 µg/mL (≈ 0.0744 µM) | 2 µg/mL (≈ 2.48 µM)
CC[C@H]1OC(=O)[C@H](C)C(=O)[C@H](C)[C@@H](O[C@@H]2O[C@H](C)C[C@H](N(C)C)[C@H]2O)[C@](C)(OC(=O)NCc2cnn(-c3ccccc3)c2)C[C@@H](C)C(=O)[C@H](C)[C@H]2NC(=O)O[C@@]21C [Compound 61] | 0.5 µg/mL (≈ 0.627 µM) | 0.03 µg/mL (≈ 0.0376 µM) | 16 µg/mL (≈ 20.1 µM) | 0.06 µg/mL (≈ 0.0752 µM) | 2 µg/mL (≈ 2.51 µM)
